Assay results as given in paper PMC3912015, “Synthetic Multivalent Antifungal Peptides Effective against Fungi” (PLoS ONE, 2014).
In brackets after ≈: the same amount, converted by molar mass. Like-named read-outs stand apart in the source and are kept apart here. Bridge positions count the residues as written; N and C are the ends. Peptide text beside a SMILES is read from it. I, II: the chains in the order shown.

Columns and labels:
rabbit red blood cells = assay: Haemolytic assay; type: cell-based; conditions: 4% rabbit erythrocytes, 1 h
Description: Haemolytic activity of peptides and antifungal drugs were determined against rabbit red blood cells. Briefly, serial dilution of peptides/antifungals in PBS was mixed with rRBC (final concentration 4% v/v), incubated at 37°C for 1 h and centrifuged at 3000 rpm for 10 minutes. The release of hemoglobin in the supernatant was monitored by measuring the hemoglobin absorbance at 576 nm. The readings from cell suspension in PBS (without any additives) or 1% Triton-X100 were used as 0% or 100% haemolysis.

[1] = test system: clinical isolates of C. albicans 2672R and C. albicans 1976R; assay: MIC against two clinical isolates, with or without 5% human serum; type: cell-based; conditions: Candida albicans; standard medium without serum
Description: (§1) The yeast strains were cultivated and suspended in Sabouraud’s Dextrose (SD) broth diluted to one sixth at a starting OD600 = ∼0.08 in a flat-bottomed microtitre plate. A serial dilution of peptide in the same broth was mixed with the inoculum to give a final peptide concentration of 0.4–22 µM. The antifungal activity was assessed by monitoring the OD600 in cycles of 30 minutes and an orbital shaking at 100 rpm using an Infinite M200 microplate reader (Tecan Group Ltd., Switzerland) for 24/48 h at 37°C. Cultures without peptides were used as positive controls and broth alone or with 22 µM peptide served as negative controls. The minimum concentration required for complete inhibition was assessed by both visible observations as well as by measuring the OD600 and taken as the MIC. Each experiment was repeated in triplicates. For studying the effects of metal ions, SD broth was adjusted with appropriate concentrations of salts to yield a final concentration of 100 and 135 mM for NaCl and KCl and 0.5–2 mM for CaCl2 and MgCl2. MIC determinations were carried out as described above. C. albicans ATCC10231 cells and salts in broth were taken as a positive control. Salts alone (NaCl, KCl, and CaCl2 and MgCl2) in broth or with 22 µM peptide served as a negative control. The effect of 5% human serum on the activities of B4010 against two C. albicans clinical isolates was determined. The human male serum was centrifuged at 13,000 rpm for 10 mins in order to remove the lipids and the supernatant was collected. The MIC values against clinical isolates of C. albicans 2672R and C. albicans 1976R were determined both in standard medium (SD broth) as well as in standard medium containing 5% serum supernatant as before.

C. albicans ATCC24433 = assay: microbe, parasite or virus in culture; type: cell-based
Description: as §1

C. albicans DF1976R = assay: microbe, parasite or virus in culture; type: cell-based
Description: as §1

C. albicans ATCC2091 = assay: microbe, parasite or virus in culture; type: cell-based
Description: as §1

C. albicans ATCC10231 = assay: microbe, parasite or virus in culture; type: cell-based
Description: as §1

C. albicans DF2672R [2] = assay: microbe, parasite or virus in culture; type: cell-based
Description: as §1

[3] = Isothermal titration calorimetry; type: binding; conditions: PC SUVs, 15% ergosterol, 25°C
Description: ITC experiments were performed using a Microcal VP-ITC Calorimeter (Microcal, Northampton, MA, USA). SUVs, B4010, and polyene antifungals were dissolved in 10 mM HEPES buffered saline at pH 7.2. […] A total of 40 injections were performed and the heat of reaction produced by each injection was determined by integration of heat flow traces. In a separate experiment, the heat of dilution was determined by titrating SUVs into the buffer solution (without peptide). The heat of dilution was subtracted from the heat changes determined in the peptide/antifungal-liposome experiments.

[4] = type: biochemical
Description: Small unilamellar vesicles (SUVs) were prepared using PC/PE/PI or PS lipids (5∶2.5∶2.5) containing 15 wt% ergosterol or PC/Cholesterol (10∶1). For the preparation of PC/PE/PI or PS/Erg SUV, the lipids were dissolved in chloroform/methanol (2∶1, v/v) in a glass tube. Ergosterol was dissolved in same solvent and added to lipid mixture to make final ergosterol content of 15 wt%. The Lipid-ergosterol mixture was dried using nitrogen gas to form lipid layer. The film was hydrated in a buffer containing 20 mM PBS (pH 7), vortexed and sonicated. Each cycle of sonication (5 sec, 40°C) was followed by freezing in liquid nitrogen and thawing on a water bath kept at 37°C. The procedure was repeated 5–6 times until an optically clear dispersion appeared. The SUV was divided into two parts. To the first part 50 mM calcein was added and incubated for 1 h. The excess calcein was removed by injecting 100 µL of the calcien-loaded SUV’s into a Ultrahydrogel™ 250 (7.8 mm × 300 mm) column equilibrated with 20 mM PBS (pH 7.0) and eluted isochratically at a flow rate of 1 mL/min for 1.5 column volumes. The calcein-loaded liposomes were mixed with calcein-free liposome (1∶1) to adjust final liposome concentration. Peptide concentration was added to obtain 1∶30 or 1∶15 peptide:liposome ratio. Changes in the fluorescence signal after addition of peptide or Triton X-100 was measured on a PTI spectrofluorometer, using an excitation wavelength of 480 nm and emission wavelength of 512 nm. The Percentage calcein released at each time point was calculated using the equation, [drawing 1]
Where A0 is the observed fluorescence intensity upon addition of peptides, Amin is the average intensity at the baseline (before peptide addition), Amax is the average intensity at the saturation phase after adding 1% Triton X-100. Similar protocol was followed for the preparation of PC/Cholesterol SUVs.

C. albicans DF2672R [5] = assay: Time-kill kinetics assay; type: cell-based
Description: (§2) The time-kill kinetics of B4010 was determined against two strains of C. albicans (ATCC 10231 and DF2672R). The cultures were grown overnight in SD broth and the cell concentration was adjusted to 10^5–10^6 CFU/mL with phosphate buffer. The peptide or antifungals were added to the individual cultures. […] The test solution was incubated at 37°C with constant shaking. 100 µL of the suspension was withdrawn at predetermined time points, serially diluted (10^2 or 10^3 fold) and poured into the SDA plate. The plate was incubated for 48 h at 37°C for colony counting. The data were expressed in terms of % fungal viability relative to the positive control.

[6] = test system: human conjunctival epithelial cells (IOBA-NHC); assay: cells; type: cell-based; conditions: 24 h
Description: (§3) Immortalized normal human conjunctival epithelial cells (IOBANHC) were a gift from Yolanda Diebold at the University of Valladolid, Spain [31]. IOBA-NHC cells were cultured under standard conditions (humidified atmosphere of 5% CO2 at 37°C) in DMEM/F12 supplemented with 1 µg/ml bovine pancreas insulin, 2 ng/ml mouse epidermal growth factor, 0.1 µg/ml cholera toxin, 5 µg/ml hydrocortisone, 10% fetal bovine serum (FBS), 50 UI/ml penicillin, and 50 UI/ml streptomycin. Cells from passages 50–80 were used in all experiments. Every day, normal culture development was observed by phase-contrast microscopy. Cells were removed by gentle trypsin incubation at confluence and counted. They were seeded into 96 well culture plates (Corning, Schiphol-Rijk, The Netherlands) for microtitration analysis of flow cytotoxicity assay (∼10,000 cells/well). Cultures were kept at 37°C for 24 h. Subconfluent cells (culture surface covering nearly 70%) were then exposed to various peptide concentrations (0.22–225 µM). Cytotoxicity was measured periodically using MultiTox-Fluor Multiplex assay kit (Promega, WI, USA) by measuring the AFC fluorescence (λex = 485 and λem = 520 nm). We report the cell viability after 24 h incubation of the cells with the peptides since there was no detectable toxicity even after 8 h of incubation.

F. solani DM3782 = assay: microbe, parasite or virus in culture; type: cell-based; conditions: Fusarium solani; F. solani DM3782
C. albicans ATCC 10231 = assay: Time-kill kinetics assay; type: cell-based; conditions: 16× MIC
Description: as §2

F. solani ATCC36031 = assay: microbe, parasite or virus in culture; type: cell-based; conditions: Fusarium solani; F. solani ATCC36031
F. solani DF1500 = assay: microbe, parasite or virus in culture; type: cell-based; conditions: Fusarium solani; F. solani DF1500
in vitro = type: cell-based, human; conditions: human
Description: as §3

[7] = Candida albicans, ATCC24433, Table 3, read-out: MIC in µM against Ca 24433
[8] = Candida albicans, DF1976R, Table 3, read-out: MIC in µM against Ca DF1976R
[9] = Candida albicans, ATCC2091, Table 3, read-out: MIC in µM against Ca 2091
[10] = Candida albicans, ATCC10231, Table 3, read-out: MIC in µM against Ca 10231
[11] = Candida albicans, DF2672R, Table 3, read-out: MIC in µM against Ca 2672R
[12] = Homo sapiens, Epithelial cell, 24 h exposure, read-out: EC50 (effective concentration required to kill 50% of human conjunctival epithelial cells)

SMILES | HC50 (rabbit red blood cells) [µM] | MIC [1] [µM] | MIC (C. albicans ATCC24433; [7]) [µM] | MIC (C. albicans DF1976R; [8]) [µM] | MIC (C. albicans ATCC2091; [9]) [µM] | MIC (C. albicans ATCC10231; [10]) [µM] | MIC (C. albicans DF2672R [2]; [11]) [µM] | % Calcein released from PC/PE/PS/Erg [4] [%] | EC50 [6, 12] [µM] | also measured
C[C@@H]1[C@H](O)[C@@H](C)/C=C/C=C/C=C/C=C/C=C/C=C/C=C/[C@H](O[C@@H]2O[C@H](C)[C@@H](O)[C@H](N)[C@@H]2O)C[C@@H]2O[C@](O)(C[C@@H](O)C[C@@H](O)[C@H](O)CC[C@@H](O)C[C@@H](O)CC(=O)O[C@H]1C)C[C@H](O)[C@H]2C(=O)O [Amphotericin B, reference compound] | 59.4 ± 7.8 | 1.4 (≈ 1.29 µg/mL) | 1.35 (≈ 1.25 µg/mL) | 1.35 (≈ 1.25 µg/mL) | < 0.4 | 1.35 (≈ 1.25 µg/mL) | 1.35 (≈ 1.25 µg/mL) | 0 | 134 ± 16 | affinity for membrane bound ergosterol (ITC) [3]: strong affinity; time to maximal effect (C. albicans DF2672R [5]; 16× MIC): less than 8 h
C[C@@H]1C/C=C/C=C/C=C/C=C/[C@H](O[C@@H]2O[C@H](C)[C@@H](O)[C@H](N)[C@@H]2O)C[C@@H]2O[C@](O)(C[C@@H](O)C[C@H]3O[C@@H]3/C=C/C(=O)O1)C[C@H](O)[C@H]2C(=O)O [Natamycin, reference compound] | 139.6 ± 0.18 | 15 (≈ 9.99 µg/mL) | 15 (≈ 9.99 µg/mL) | 15 (≈ 9.99 µg/mL) | 7.5 (≈ 4.99 µg/mL) | 15 (≈ 9.99 µg/mL) | 15 (≈ 9.99 µg/mL) | 0 | 212 ± 20.5 | MIC (C. albicans ATCC24433; Candida albicans, C. albicans ATCC24433, read-out: MIC): 15 µM (≈ 9.99 µg/mL); MIC (C. albicans DF1976R; Candida albicans, C. albicans DF1976R, read-out: MIC): 15 µM (≈ 9.99 µg/mL); MIC (C. albicans ATCC2091; Candida albicans, C. albicans ATCC2091, read-out: MIC): 7.5 µM (≈ 4.99 µg/mL); MIC (C. albicans ATCC10231; Candida albicans, C. albicans ATCC10231, read-out: MIC): 15 µM (≈ 9.99 µg/mL); MIC (C. albicans DF2672R [2]; Candida albicans, C. albicans DF2672R, read-out: MIC): 15 µM (≈ 9.99 µg/mL); MIC (F. solani DM3782): 2.4 µM (≈ 1.6 µg/mL); time required to achieve similar endpoints (4 log reduction) (C. albicans ATCC 10231): 24 h; fungicidal action (C. albicans DF2672R [5]; 2× MIC, 24 h exposure): no fungicidal action; MIC (F. solani ATCC36031): 4.7 µM (≈ 3.13 µg/mL); MIC (F. solani DF1500): 2.4 µM (≈ 1.6 µg/mL)
CC(C)[C@H](NC(=O)[C@H](CCCCN)NC(=O)[C@H](C)NC(=O)CNC(=O)[C@@H](N)CCCNC(=N)N)C(=O)N[C@H](C(=O)N[C@@H](CCCNC(=N)N)C(=O)N[C@@H](CCCNC(=N)N)C(=O)NCCCC[C@H](NC(=O)[C@H](CCCNC(=N)N)NC(=O)[C@H](CCCNC(=N)N)NC(=O)[C@@H](NC(=O)[C@@H](NC(=O)[C@H](CCCCN)NC(=O)[C@H](C)NC(=O)CNC(=O)[C@@H](N)CCCNC(=N)N)C(C)C)C(C)C)C(=O)NCCCC[C@H](NC(=O)[C@H](CCCCNC(=O)[C@H](CCCNC(=N)N)NC(=O)[C@H](CCCNC(=N)N)NC(=O)[C@@H](NC(=O)[C@@H](NC(=O)[C@H](CCCCN)NC(=O)[C@H](C)NC(=O)CNC(=O)[C@@H](N)CCCNC(=N)N)C(C)C)C(C)C)NC(=O)[C@H](CCCNC(=N)N)NC(=O)[C@H](CCCNC(=N)N)NC(=O)[C@@H](NC(=O)[C@@H](NC(=O)[C@H](CCCCN)NC(=O)[C@H](C)NC(=O)CNC(=O)[C@@H](N)CCCNC(=N)N)C(C)C)C(C)C)C(=O)N[C@@H](CCCCN)C(=O)O)C(C)C [B4010_R3A] (I: H-RGAKVVRRKKK-OH / II: H-RGAKVVRRK / III: H-RGAKVVRR / IV: H-RGAKVVRR; amide I:9-IV:C, I:10-II:C, II:9-III:C; N-terminus and C-terminus assumed) |  |  |  |  |  |  |  | ~63 |  | MIC (C. albicans ATCC24433; ATCC24433, 48 h, read-out: MIC in µM against Ca 24433): 1.5 µM (≈ 6.33 µg/mL); MIC (C. albicans DF1976R; DF1976R, 48 h, read-out: MIC in µM against Ca DF1976R): 0.4 µM (≈ 1.69 µg/mL); MIC (C. albicans ATCC2091; ATCC2091, 48 h, read-out: MIC in µM against Ca 2091): 1.5 µM (≈ 6.33 µg/mL); MIC (C. albicans ATCC10231; ATCC10231, 48 h, read-out: MIC in µM against Ca 10231): 1.5 µM (≈ 6.33 µg/mL); MIC (C. albicans DF2672R [2]; DF2672R, 48 h, read-out: MIC in µM against Ca 2672R): 0.4 µM (≈ 1.69 µg/mL); viability at 24 h, 237 µM (in vitro): 80.9%; EC50 [6]: > 237 µM
